Source: patent US8895549B2, “Aminoalcohol substituted 2,3-dihydroimidazo[1,2-c]quinazoline derivatives useful for treating hyper-proliferative disorders and diseases associated with angiogenesis” (Bayer Intellectual Property GmbH, priority 2010, dated 2014)

Tests used:
[1] = target: PI3Kα (complex of human p110α and human p85α) (Homo sapiens (Human), UniProt P42336); experiment: PI3Kα kinase assay (HTRF-based PI3K inhibition assay); type: biochemical; settings: for inhibition at 0.93 µM: 0.93 μM compound, read-out: PI3K alpha average % Inhibition at 0.93 μM; for IC50: 10 μM ATP, 10 μM PIP2, 20 min at 22° C., read-out: average IC50 in the PI3K alpha biochemical assay;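 as to all read-outs here: PIP3 product detected by HTRF, reading resonance energy transfer from Europium-labeled anti-GST antibody to Streptavidin-APC, as displacement of biotinylated PIP3 tracer from the GST-PH domain complex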
PI3Kα (complex of human p110α and human p85α), sequence (P42336 whole entry, the tested form may be a part): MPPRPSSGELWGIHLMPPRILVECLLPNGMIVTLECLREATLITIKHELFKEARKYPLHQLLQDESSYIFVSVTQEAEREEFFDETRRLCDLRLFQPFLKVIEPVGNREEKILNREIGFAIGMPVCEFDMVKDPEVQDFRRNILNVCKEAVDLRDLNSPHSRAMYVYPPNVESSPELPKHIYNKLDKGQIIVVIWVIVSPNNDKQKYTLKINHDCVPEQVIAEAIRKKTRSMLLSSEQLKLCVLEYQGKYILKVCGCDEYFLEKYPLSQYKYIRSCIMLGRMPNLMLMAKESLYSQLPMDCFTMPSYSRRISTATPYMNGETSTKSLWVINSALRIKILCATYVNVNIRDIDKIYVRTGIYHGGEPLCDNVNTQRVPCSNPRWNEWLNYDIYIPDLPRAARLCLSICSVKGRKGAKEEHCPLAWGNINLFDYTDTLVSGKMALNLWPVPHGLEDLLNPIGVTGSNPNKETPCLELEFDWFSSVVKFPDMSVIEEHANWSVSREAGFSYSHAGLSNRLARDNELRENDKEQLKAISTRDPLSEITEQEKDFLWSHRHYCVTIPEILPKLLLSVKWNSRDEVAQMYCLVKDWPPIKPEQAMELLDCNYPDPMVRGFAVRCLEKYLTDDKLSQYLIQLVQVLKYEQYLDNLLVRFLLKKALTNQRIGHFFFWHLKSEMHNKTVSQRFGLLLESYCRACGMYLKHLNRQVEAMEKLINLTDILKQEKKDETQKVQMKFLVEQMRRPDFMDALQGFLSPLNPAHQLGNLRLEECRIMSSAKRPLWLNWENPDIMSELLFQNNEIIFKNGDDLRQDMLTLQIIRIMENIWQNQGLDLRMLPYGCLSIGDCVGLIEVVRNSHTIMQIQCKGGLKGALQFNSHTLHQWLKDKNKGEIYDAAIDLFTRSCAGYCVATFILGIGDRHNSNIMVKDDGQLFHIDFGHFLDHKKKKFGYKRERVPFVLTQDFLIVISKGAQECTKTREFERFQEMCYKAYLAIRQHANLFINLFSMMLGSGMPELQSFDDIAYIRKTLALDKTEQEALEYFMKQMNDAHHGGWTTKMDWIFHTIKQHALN
PI3Kα (complex of human p110α and human p85α), sequence (P27986 whole entry partner, the tested form may be a part): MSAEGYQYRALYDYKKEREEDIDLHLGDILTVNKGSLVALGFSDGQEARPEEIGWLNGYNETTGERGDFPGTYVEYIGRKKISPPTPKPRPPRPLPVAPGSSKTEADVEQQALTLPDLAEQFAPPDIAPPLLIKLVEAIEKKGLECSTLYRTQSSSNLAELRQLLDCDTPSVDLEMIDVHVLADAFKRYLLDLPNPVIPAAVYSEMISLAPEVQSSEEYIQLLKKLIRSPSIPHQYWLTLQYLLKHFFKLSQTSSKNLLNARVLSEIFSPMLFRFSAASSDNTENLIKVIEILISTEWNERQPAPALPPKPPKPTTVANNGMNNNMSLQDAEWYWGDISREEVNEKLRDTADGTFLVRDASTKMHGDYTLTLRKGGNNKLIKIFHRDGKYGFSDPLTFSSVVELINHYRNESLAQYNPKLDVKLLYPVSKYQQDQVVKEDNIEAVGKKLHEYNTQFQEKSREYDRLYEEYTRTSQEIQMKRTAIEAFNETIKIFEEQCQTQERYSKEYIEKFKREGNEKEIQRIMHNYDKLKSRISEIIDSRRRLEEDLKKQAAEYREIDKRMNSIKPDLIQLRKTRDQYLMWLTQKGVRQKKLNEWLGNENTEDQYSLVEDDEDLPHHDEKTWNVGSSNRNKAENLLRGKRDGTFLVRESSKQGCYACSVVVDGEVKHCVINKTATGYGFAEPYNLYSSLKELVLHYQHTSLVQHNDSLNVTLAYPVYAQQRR
From the text: (§1) Determination of % Inhibition and IC50 Values of Compounds in PI3Kα Kinase Assay
PI3Kα inhibitory activity of compounds of the present invention was quantified employing the HTRF-based PI3K inhibition assay as described below.
(§2) As reagents for the kinase reaction itself and the quantification of the reaction product, the PI3-Kinase HTRF Assay kit from Millipore (#33-017) was used. With this kit the phosphatidylinositol 3,4,5-trisphosphate (PIP3) generated in the kinase reaction is detected by displacement of a biotinylated ligand from an energy transfer complex consisting of a Europium-labeled anti-GST monoclonal antibody, a GST-tagged PH domain, biotinylated PIP3 and Streptavidin-Allophycocyanin (APC).
For the assay 50 nL of a 80-fold concentrated solution of the test compound in DMSO was pipetted into a black low volume 384-well microtiter plate (Greiner Bio-One, Frickenhausen, Germany), 3 μL of a solution of PI3Kα and phosphatidylinositol-4,5-bisphosphate (PIP2, 13.8 μM=> final conc. in 4 μl reaction volume=10 μM) in 1× reaction buffer (exact composition not disclosed by the vendor) were added and the mixture was incubated for 15 min at 22° C. to allow pre-binding of the test compounds to the enzyme before the start of the kinase reaction. The amount of PI3Kα was chosen to have the enzyme reaction in the linear range and depended on the activity of the individual lot, typical concentrations in assay were in the range of 90 ng/mL. Then the kinase reaction was started by the addition of 1 μL of a solution of adenosine triphosphate (ATP, 40 μM=> final conc. in the 4 μL assay volume is 10 μM) in reaction buffer and the resulting mixture was incubated for a reaction time of 20 min at 22° C.
The reaction was stopped by the addition of 1 μL of an stop solution (containing the biotinylated PIP3 used as a tracer), then 1 μL detection mix (containing a Europium-labeled anti-GST monoclonal antibody, a GST-tagged PH domain, and Streptavidin-Allophycocyanin) was added and resulting mixture was incubated 3 h at 22° C. to allow the formation of complexes between the detection reagents and either the PIP3 generated in the kinase reaction, or the biotinylated PIP3 added with the stop solution. Subsequently, the amount of energy transfer complex consisting of a Europium-labeled anti-GST monoclonal antibody, a GST-tagged PH domain, biotinylated PIP3 and Streptavidin-Allophycocyanin (APC) was evaluated by measurement of the resonance energy transfer from the Europium-labeled anti-GST monoclonal antibody to the Streptavidin-Allophycocyanin. Therefore, the fluorescence emissions at 620 nm and 665 nm after excitation at 350 nm were measured using a TR-FRET reader, e.g., a Pherastar (BMG Labtechnologies, Offenburg, Germany) or a Viewlux (Perkin-Elmer). The ratio of the emissions at 665 nm and at 622 nm was taken as the measure for the amount of biotinylated PIP3 bound to the GST-tagged PH domain, which is negatively correlated with the amount of PIP3 generated.

[2] = target: PI3Kβ (complex of human p110β and human p85α) (Homo sapiens (Human), UniProt P42338); experiment: PI3Kβ kinase assay (HTRF-based PI3K inhibition assay); type: biochemical; settings: for inhibition at 0.93 µM: 0.93 μM compound, read-out: PI3K beta average % Inhibition at 0.93 μM; for IC50: 10 μM ATP, 10 μM PIP2, 20 min at 22° C., read-out: average IC50 in the PI3K beta biochemical assay; for PI3K beta average IC50/PI3K alpha average IC50: ratio of beta IC50 to alpha IC50;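 as to all read-outs here: Kinase-made PIP3 detected by HTRF, displacing biotinylated PIP3 tracer from a complex of Europium anti-GST antibody, GST-fused PH domain and Streptavidin-APC, read as Europium-to-APC energy transfer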
PI3Kβ (complex of human p110β and human p85α), sequence (P42338 whole entry, the tested form may be a part): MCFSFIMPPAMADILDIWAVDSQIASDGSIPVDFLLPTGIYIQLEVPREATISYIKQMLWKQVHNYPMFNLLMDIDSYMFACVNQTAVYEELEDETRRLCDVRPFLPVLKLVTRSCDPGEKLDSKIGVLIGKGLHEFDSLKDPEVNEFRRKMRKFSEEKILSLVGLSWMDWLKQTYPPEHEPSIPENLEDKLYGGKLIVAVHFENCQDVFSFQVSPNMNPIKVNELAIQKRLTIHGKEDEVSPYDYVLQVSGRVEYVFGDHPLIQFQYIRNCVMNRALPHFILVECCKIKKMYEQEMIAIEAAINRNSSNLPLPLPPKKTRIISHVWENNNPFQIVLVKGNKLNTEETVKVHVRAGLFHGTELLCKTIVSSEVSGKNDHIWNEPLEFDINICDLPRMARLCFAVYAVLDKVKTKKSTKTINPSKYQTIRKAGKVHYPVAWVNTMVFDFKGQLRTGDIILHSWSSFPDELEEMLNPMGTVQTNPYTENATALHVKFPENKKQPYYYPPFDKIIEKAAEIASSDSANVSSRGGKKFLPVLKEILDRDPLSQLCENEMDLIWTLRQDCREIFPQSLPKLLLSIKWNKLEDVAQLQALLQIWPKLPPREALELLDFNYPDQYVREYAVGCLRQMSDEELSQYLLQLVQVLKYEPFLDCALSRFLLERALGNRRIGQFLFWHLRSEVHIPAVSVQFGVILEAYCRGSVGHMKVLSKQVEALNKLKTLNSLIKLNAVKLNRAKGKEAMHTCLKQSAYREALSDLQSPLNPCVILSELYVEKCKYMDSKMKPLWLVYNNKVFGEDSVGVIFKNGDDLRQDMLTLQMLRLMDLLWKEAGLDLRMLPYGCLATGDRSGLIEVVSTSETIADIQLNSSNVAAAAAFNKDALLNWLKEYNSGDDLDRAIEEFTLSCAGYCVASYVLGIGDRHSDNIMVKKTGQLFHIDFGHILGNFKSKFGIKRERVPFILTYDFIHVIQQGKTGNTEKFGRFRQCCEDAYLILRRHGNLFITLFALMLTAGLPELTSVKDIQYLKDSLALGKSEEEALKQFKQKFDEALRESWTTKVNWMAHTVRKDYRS
PI3Kβ (complex of human p110β and human p85α), sequence (P27986 whole entry partner, the tested form may be a part): as the sequence (P27986 whole entry partner, the tested form may be a part) above
From the text: as §1
PI3Kα inhibitory activity of compounds of the present invention was quantified employing the HTRF based PI3K inhibition assay as described below.
as §2
For the assay 50 nL of a 80-fold concentrated solution of the test compound in DMSO was pipetted into a black low volume 384-well microtiter plate (Greiner Bio-One, Frickenhausen, Germany), 3 μl of a solution of PI3Kβ and phosphatidylinositol-4,5-bisphosphate (PIP2, 13.8 μM=> final conc. in 4 μl reaction volume=10 μM) in 1× reaction buffer (exact composition not disclosed by the vendor) were added and the mixture was incubated for 15 min at 22° C. to allow pre-binding of the test compounds to the enzyme before the start of the kinase reaction. The amount of PI3Kβ was chosen to have the enzyme reaction in the linear range and depended on the activity of the individual lot, typical concentrations in assay were in the range of 120 ng/mL. Then the kinase reaction was started by the addition of 1 μL of a solution of adenosine triphosphate (ATP, 40 μM=> final conc. in the 4 μl assay volume is 10 μM) in reaction buffer and the resulting mixture was incubated for a reaction time of 20 min at 22° C.
The reaction was stopped by the addition of 1 μL of an stop solution (containing the biotinylated PIP3 used as a tracer). Then 1 μL detection mix (containing a Europium-labeled anti-GST monoclonal antibody, a GST-tagged PH domain, and Streptavidin-Allophycocyanin) was added and resulting mixture was incubated for 3 h at 22° C. to allow the formation of complexes between the detection reagents and either the PIP3 generated in the kinase reaction, or the biotinylated PIP3 added with the stop solution. Subsequently the amount of energy transfer complex consisting of a Europium-labeled anti-GST monoclonal antibody, a GST-tagged PH domain, biotinylated PIP3 and Streptavidin-Allophycocyanin (APC) was evaluated by measurement of the resonance energy transfer from the Europium-labeled anti-GST monoclonal antibody to the Streptavidin-Allophycocyanin. Therefore, the fluorescence emissions at 620 nm and 665 nm after excitation at 350 nm were measured using a TR-FRET reader, e.g., a Pherastar (BMG Labtechnologies, Offenburg, Germany) or a Viewlux (Perkin-Elmer). The ratio of the emissions at 665 nm and at 622 nm were taken as the measure for the amount of biotinylated PIP3 bound to the GST-tagged PH domain, which is negatively correlated with the amount of PIP3 generated.

inhibition at 0.93 µM [1]	inhibition at 0.93 µM [2]	IC50 [1]	IC50 [2]	PI3K beta average IC50/PI3K alpha average IC50 [2]	Structure (SMILES)
99.5%	97.3%	10 to 50 nM	> 50 nM	2.22	COc1c(OC[C@H](O)CN2CCC2)ccc2c1N=C(NC(=O)c1cccnc1)N1CCN=C21 [Example 7, N-(8-{[(2R)-3-(azetidin-1-yl)-2-hydroxypropyl]oxy}-7-methoxy-2,3-dihydroimidazo[1,2-c]quinazolin-5-yl)pyridine-3-carboxamide]
102%	101%	< 10 nM	10 to 50 nM	2.62	COc1c(OC[C@H](O)CN2CCCC2)ccc2c1N=C(NC(=O)c1cccnc1)N1CCN=C21 [Example 8, N-(8-{[(2R)-2-hydroxy-3-(pyrrolidin-1-yl)propyl]oxy}-7-methoxy-2,3-dihydroimidazo[1,2-c]quinazolin-5-yl)pyridine-3-carboxamide]
104%	115%	< 10 nM	10 to 50 nM	4.74	COc1c(OC[C@H](O)CN(C(C)C)C(C)C)ccc2c1N=C(NC(=O)c1cccnc1)N1CCN=C21 [Example 12, N-(8-{[(2R)-3-(dipropan-2-ylamino)-2-hydroxypropyl]oxy}-7-methoxy-2,3-dihydroimidazo[1,2-c]quinazolin-5-yl)pyridine-3-carboxamide]
109%	87.7%	10 to 50 nM	10 to 50 nM	3.94	COc1c(OC[C@H](O)CN2CCC2)ccc2c1N=C(NC(=O)c1cccnc1C)N1CCN=C21 [Example 16, N-(8-{[(2R)-3-(Azetidin-1-yl)-2-hydroxypropyl]oxy}-7-methoxy-2,3-dihydroimidazo[1,2-c]quinazolin-5-yl)-2-methylpyridine-3-carboxamide]
109%	87.2%	< 10 nM	10 to 50 nM	5.36	COc1c(OC[C@H](O)CN2C[C@@H](C)O[C@@H](C)C2)ccc2c1N=C(NC(=O)c1cccnc1C)N1CCN=C21 [Example 17, N-[8-({(2R)-3-[(2R,6S)-2,6-dimethylmorpholin-4-yl]-2-hydroxypropyl}oxy)-7-methoxy-2,3-dihydroimidazo[1,2-c]quinazolin-5-yl]-2-methylpyridine-3-carboxamide]
96.9%	103%	< 10 nM	10 to 50 nM	3.90	COc1c(OC[C@H](O)CN2CCCC2)ccc2c1N=C(NC(=O)c1cccnc1C)N1CCN=C21 [Example 18, N-(8-{[(2R)-2-hydroxy-3-(pyrrolidin-1-yl)propyl]oxy}-7-methoxy-2,3-dihydroimidazo[1,2-c]quinazolin-5-yl)-2-methylpyridine-3-carboxamide]
103%	91.2%	< 10 nM	10 to 50 nM	2.78	COc1c(OC[C@H](O)CN2CCCCC2)ccc2c1N=C(NC(=O)c1cccnc1C)N1CCN=C21 [Example 19, N-(8-{[(2R)-2-Hydroxy-3-(piperidin-1-yl)propyl]oxy}-7-methoxy-2,3-dihydroimidazo[1,2-c]quinazolin-5-yl)-2-methylpyridine-3-carboxamide]
102%	98.6%	< 10 nM	10 to 50 nM	4.20	COc1c(OC[C@H](O)CN(C(C)C)C(C)C)ccc2c1N=C(NC(=O)c1cccnc1C)N1CCN=C21 [Example 20, N-(8-{[(2R)-3-(dipropan-2-ylamino)-2-hydroxypropyl]oxy}-7-methoxy-2,3-dihydroimidazo[1,2-c]quinazolin-5-yl)-2-methylpyridine-3-carboxamide]
		< 10 nM	10 to 50 nM	9.37	COc1c(OCC(O)CN2CCOCC2)ccc2c1N=C(NC(=O)c1ccc(N)nc1)N1CCN=C21 (stereo not drawn) [Example 21, 6-amino-N-{8-[2-hydroxy-3-(morpholin-4-yl)propoxy]-7-methoxy-2,3-dihydroimidazo[1,2-c]quinazolin-5-yl}pyridine-3-carboxamide]
85.1%	94.7%	10 to 50 nM	10 to 50 nM	1.99	COc1c(OC[C@H](O)CN2CCCC2)ccc2c1N=C(NC(=O)c1cncnc1)N1CCN=C21 [Example 24, N-(8-{[(2R)-2-hydroxy-3-(pyrrolidin-1-yl)propyl]oxy}-7-methoxy-2,3-dihydroimidazo[1,2-c]quinazolin-5-yl)pyrimidine-5-carboxamide]

Second part, the molecule before the results:

Structure (SMILES)	inhibition at 0.93 µM [1]	inhibition at 0.93 µM [2]	IC50 [1]	IC50 [2]	PI3K beta average IC50/PI3K alpha average IC50 [2]
COc1c(OCC(O)CN2CCOCC2)ccc2c1N=C(NC(=O)c1cccnc1)N1CCN=C21 (stereo not drawn) [Comparative Example 1, N-{8-[2-hydroxy-3-(morpholin-4-yl)propoxy]-7-methoxy-2,3-dihydroimidazo[1,2-c]quinazolin-5-yl}pyridine-3-carboxamide, reference compound]	97.4%	92.1%			
COc1c(OC[C@H](O)CN2CCOCC2)ccc2c1N=C(NC(=O)c1cccnc1)N1CCN=C21 [Example 2, N-(8-{[(2R)-2-hydroxy-3-(morpholin-4-yl)propyl]oxy}-7-methoxy-2,3-dihydroimidazo[1,2-c]quinazolin-5-yl)pyridine-3-carboxamide]	97.6%	94.4%			
COc1c(OC[C@@H](O)CN2CCOCC2)ccc2c1N=C(NC(=O)c1cccnc1)N1CCN=C21 [Example 3, N-(8-{[(2S)-2-hydroxy-3-(morpholin-4-yl)propyl]oxy}-7-methoxy-2,3-dihydroimidazo[1,2-c]quinazolin-5-yl)pyridine-3-carboxamide]	103%	92.9%			
COc1c(OC[C@H](O)CN2C[C@@H](C)O[C@@H](C)C2)ccc2c1N=C(NC(=O)c1cccnc1)N1CCN=C21 [Example 4, N-[8-({(2R)-3-[(2R,6S)-2,6-dimethylmorpholin-4-yl]-2-hydroxypropyl}oxy)-7-methoxy-2,3-dihydroimidazo[1,2-c]quinazolin-5-yl]pyridine-3-carboxamide]	99.8%	96.4%	10 to 50 nM	> 50 nM	4.85
COc1c(OC[C@H](O)CN2CC3CCC(C2)O3)ccc2c1N=C(NC(=O)c1cccnc1)N1CCN=C21 [Example 5, N-(8-{[(2R)-2-hydroxy-3-(8-oxa-3-azabicyclo[3.2.1]oct-3-yl)propyl]oxy}-7-methoxy-2,3-dihydroimidazo[1,2-c]quinazolin-5-yl)pyridine-3-carboxamide]	101%	104%	< 10 nM	10 to 50 nM	3.68
COc1c(OCC(O)CN2CCSCC2)ccc2c1N=C(NC(=O)c1cccnc1)N1CCN=C21 (stereo not drawn) [Example 6, N-{8-[2-hydroxy-3-(thiomorpholin-4-yl)propoxy]-7-methoxy-2,3-dihydroimidazo[1,2-c]quinazolin-5-yl}pyridine-3-carboxamide]	91.2%	84.1%	< 10 nM	> 50 nM	
COc1c(OC[C@H](O)CN2CCCCC2)ccc2c1N=C(NC(=O)c1cccnc1)N1CCN=C21 [Example 9, N-(8-{[(2R)-2-Hydroxy-3-(piperidin-1-yl)propyl]oxy}-7-methoxy-2,3-dihydroimidazo[1,2-c]quinazolin-5-yl)pyridine-3-carboxamide]	104%	97.2%	< 10 nM	10 to 50 nM	2.02
COc1c(OCC(O)CN(C)C)ccc2c1N=C(NC(=O)c1cccnc1)N1CCN=C21 (stereo not drawn) [Example 10, N-{8-[3-(dimethylamino)-2-hydroxypropoxy]-7-methoxy-2,3-dihydroimidazo[1,2-c]quinazolin-5-yl}pyridine-3-carboxamide]	96.3%	98.1%	< 10 nM	10 to 50 nM	5.47
COc1c(OC[C@H](O)CN(C)C)ccc2c1N=C(NC(=O)c1cccnc1)N1CCN=C21 [Example 11, N-(8-{[(2R)-3-(dimethylamino)-2-hydroxypropyl]oxy}-7-methoxy-2,3-dihydroimidazo[1,2-c]quinazolin-5-yl)pyridine-3-carboxamide]	82%	95.5%	10 to 50 nM	10 to 50 nM	1.60
COc1c(OC[C@H](O)CN2CCOCC2)ccc2c1N=C(NC(=O)c1cccnc1C)N1CCN=C21 [Example 14, N-(8-{[(2R)-2-Hydroxy-3-(morpholin-4-yl)propyl]oxy}-7-methoxy-2,3-dihydroimidazo[1,2-c]quinazolin-5-yl)-2-methylpyridine-3-carboxamide]	104%	102%	< 10 nM	10 to 50 nM	3.09
COc1c(OC[C@H](O)CN2CCOCC2)ccc2c1N=C(NC(=O)c1ccc(N)nc1C)N1CCN=C21 [Example 23, 6-Amino-N-(8-{[(2R)-2-hydroxy-3-(morpholin-4-yl)propyl]oxy}-7-methoxy-2,3-dihydroimidazo[1,2-c]quinazolin-5-yl)-2-methylpyridine-3-carboxamide]	105%	119%	< 10 nM	10 to 50 nM	7.30
